Reference: patent US20230346716A1, “TREATMENT OF SKIN DISORDERS WITH TOPICAL TAPINAROF COMPOSITIONS” (Sol-Gel Technologies Ltd., priority 2019, published 2023)

Experiments:
[1] = as a single drug, psoriasis treatment; placebo 20.2%; cited from earlier work
[2] = test system: experimentally induced psoriasis in normal human skin grafted onto beige-SCID mice; test: Study 1: histology of human skin xenograft psoriasis model in beige-SCID mice; type: in vivo; details: for Mean Epidermal Thickness: topical 14 days, grafts excised Day 56, mean ± SD
Excerpt: (§1) The objective of this study was to determine the efficacy of tapinarof composition as described in Example 8 compared to the vehicle and Dexamethasone as shown below. The evaluation was based on histology analysis following application of the respective test formulations.
(§2) In this model, a psoriasis phenotype is induced in normal skin grafted onto beige-severe combined immunodeficient mice by intradermal injection of natural killer/T-cells derived from psoriatic patients (Gilhar et al., Psoriasis is mediated by a cutaneous defect triggered by activated immunocytes: induction of psoriasis by cells with natural killer receptors, J. Invest. Dermatol. 2002 August; 119(2):384-91).
(§3) In order to address the aim of the experiment, the psoriatic humanized mice were established Additionally, 10 psoriatic patients were recruited (six males and four females), ranging from 21 to 66 years (mean age 45 years). All patients had classic plaque psoriasis. Normal skin from one healthy volunteer was obtained for grafting.
(§4) The efficacy study has been conducted on female mice. The total duration of the experiment was 8 weeks, upon receiving of the human skin. Normal skin from healthy volunteers were obtained for grafting. Healthy human abdominal skin pieces with a width of 0.4 mm and surface area of 1.5×1.5 cm were provided. The skin sample was preserved in isotonic saline solution and transplanted within 6-12 hours after skin donation. In addition, blood samples were collected from psoriatic patients having classic plaque psoriasis and not undergoing any treatment. 20 mL blood samples were taken from both males and females psoriatic patients (from psoriatic patients having classic plaque psoriasis and not undergoing any treatment), and peripheral blood mononuclear cells (PBMC) were separated immediately after blood withdrawal.
(§5) Mice: Beige-severe combined immunodeficient mice C.B-17/IcrHsdscid-bg (beige-SCID) mice (weight ˜25 g) were included in this study. Mice were monitored twice a week for vital signs such as weight, food intake, coat, eyes, anal genital areas, discharge/soiling, behavior and criteria related to skin transplantation. Normal healthy human donor skin were transplanted onto the beige-SCID mice as previously described (See Keren A. et al., Novel nanosome delivery system combined with siRNA targeting the antimicrobial gene DFB4: a new approach for psoriasis management? ExpDermatol. 2014; 23:464-465; Bracke S. et a/., Targeted silencing of DEFB4 in a bioengineered skin-humanized mouse model for psoriasis: development of siRNA SECosome-based novel therapies. ExpDermatol. 2014; 23:199-201; Zaretsky M. et al., Directed evolution of a soluble human IL-17A receptor for the inhibition of psoriasis plaque formation in a mouse model. Chem Biol. 2013 21; 20:202-2; Gilhar A. et al., The beneficial effect of blocking Kv1.3 in the psoriasiform SCID mouse model. J Invest Dermatol. 2011; 131:118 124; Keren A. et al., Innate lymphoid cells 3 induce psoriasis in xenotransplanted healthy human skin. J Allergy Clin Immunol. 2018; 142:305-308.e6).
(§6) British Journal of Pharmacology 2010; 159:842-855).
(§7) Four weeks following the engraftment, each mouse was injected (intradermally) with 1×10^7 IL-2 enriched allogeneic PBMC's from psoriatic patients (1×10^7 cells injected/mouse). Cells from different psoriasis patients were equally distributed between treatment groups. Each patient was represented in each treatment group.
(§8) Fourteen days following cells injections, the mice were divided into treatment groups (Table 1, see below) and treated according to the timeline indicated below (see Scheme 1). Each transplant was equally topically treated (50 μg) by using a sterile spatula.
(§9) Dexamethasone (D2915, Sigma): was freshly prepared for each administration by dilution in saline to final concentration (50 mg/ml). […]

[3] = test system: experimentally induced psoriasis in normal human skin grafted onto beige-SCID mice; test: Study 2: histology of human skin xenograft psoriasis model in beige-SCID mice; type: in vivo; parameters: Mean Epidermal Thickness: unit not given here
Excerpt: as §1, §2, §3, §4, §5, §6, §7, §8, §9

[4] = test system: HBD2, Psoriasin (S100A7), CD4, CD8, IL-17, IL-22; test: Study 2: immunohistochemical markers for psoriasis in human xenotransplants; type: in vivo, beige-SCID mice; details: immunohistochemistry of xenotransplants
[5] = histological evaluation of human skin grafts

## C=C1/C(=C\C=C2/CCC[C@]3(C)[C@@H]([C@H](C)/C=C/[C@@H](O)C4CC4)CC[C@@H]23)C[C@@H](O)C[C@@H]1O [calcipotriene]
[1]
  adverse effects: 19.5%

## CC(C)c1c(O)cc(/C=C/c2ccccc2)cc1O [Tapinarof, 3,5-dihydroxy-4-isopropyl-trans-stilbene]
[1]
  adverse effects: 44.5%

## C[C@@H]1C[C@H]2[C@@H]3CCC4=CC(=O)C=C[C@]4(C)[C@@]3(F)[C@@H](O)C[C@]2(C)[C@@]1(O)C(=O)CO [Dexamethasone]
[2]
  Partial Recovery (percent of grafts): (10%)
  Psoriatic Features (percent of grafts): (0%)
  Mean Epidermal Thickness: 254±59 μm
[2]; average ± SD
  Baker score: Agranulosis - hypogranulosis: 0.1 ± 0.3
  Baker score: Blood vessels (tortuosity, elongation): 0.05 ± 0.1
  Baker score: Epidermal thickening (acanthosis): 0.05 ± 0.1
  Baker score: Hyperkeratosis: 0.05 ± 0.1
  Baker score: Mononuclear cells infiltrate in the papillary dermis: 0.2 ± 0.6
  Baker score: Munro micro abscess: 0 ± 0
  Baker score: Parakeratosis: 0.1 ± 0.3
  Baker score: Regular/abnormal elongation of rete ridges: 0.1 ± 0.4
  Baker score: Suprapapillary epidermal thinning: 0.05 ± 0.1
  Histological Scoring (Baker system), Total Score: 0.7 ± 1.9
[2]; [5]
  Complete Recovery (grafts/total grafts): 9/10
  Partial Recovery (grafts/total grafts): 1/10
  Psoriatic Features (grafts/total grafts): 0/10
[2]; listed as Dexamethasone 2 mg
  Mean Epidermal Thickness: 254 ± 59 μm
[3]
  Proliferation index (%): 6 ± 2%
[3]; average ± SD
  Baker score: Agranulosis - hypogranulosis: 0.1 ± 0.3
  Baker score: Blood vessels (tortuosity, elongation): 0.05 ± 0.1
  Baker score: Epidermal thickening (acanthosis): 0.05 ± 0.1
  Baker score: Hyperkeratosis: 0 ± 0
  Baker score: Mononuclear cells infiltrate in the papillary dermis: 0 ± 0
  Baker score: Munro micro abscess: 0 ± 0
  Baker score: Parakeratosis: 0 ± 0
  Baker score: Regular/abnormal elongation of rete ridges: 0 ± 0
  Baker score: Suprapapillary epidermal thinning: 0.05 ± 0.1
  Histological Scoring (Baker system), Total Score: 0.25 ± 0.8
[3]; [5]
  Complete Recovery (grafts/total grafts): 10/10
  Partial Recovery (grafts/total grafts): 0/10
  Psoriatic Features (grafts/total grafts): 0/10
[3]; mean ± SD
  Mean Epidermal Thickness: 193 ± 71
[4]
  CD4: 0.5 ± 0.8 Cells per 0.66 mm^2
  CD8: 0.6 ± 0.6 Cells per 0.66 mm^2
  HBD2 (Integrated intensity, %): 5.8 ± 0.9%
  IL-17: 0.6 ± 0.9^ Cells per 0.66 mm^2
  IL-22: 0.4 ± 0.8 Cells per 0.66 mm^2
  Psoriasin (S100A7) (Integrated intensity, %): 6.6 ± 2.1%
